“Also recorded” adds a separate entry of the source. d = 2'-deoxy (DNA); r = 2'-OH (RNA)
Experiments:
RAI-3 mRNA = RAI-3 mRNA by real-time PCR after treatment of cells with ATRA; type: cell-based, human; conditions: 24 hours
Procedure: 1×10^6 cells of each of the HEK 293, H292 and BEAS-2B cell lines were seeded into two (replicate) 100 mM cell culture dishes containing 20 ml of RPMI complete medium which contained L-glutamine, 10% fetal bovine serum and 1% Penicillin-Streptomycin (Gibco/BRL). To one 100 mM dish, 0.2 μl of DMSO were added. To the other 100 mM dish, 0.2 μl of 10 mM ATRA (Sigma R-2625, St. […] After 24 hours at 37° C. and 5% CO2, cells were lysed with Buffer RLT (Qiagen, Hilden, Germany) and total RNA was harvested pursuant to the Rneasy Midi Kit protocol (Qiagen, Hilden, Germany). RAI-3 messenger RNA levels were measured by Real-time PCR as described below in Example 1(N).
SYBR Green PCR amplification was performed on an ABI PRISM 7700 Sequence Detection System (PE Applied Biosystems, Foster City, Calif.), and the reaction was carried out using SYBR Green PCR Core reagents (PE Applied Biosystems). Real time PCR was carried out at 40 cycles with the following parameters: 95° C. for 15 seconds and 60° C. for 60 seconds, with a pre-incubation period of 50° C. for 2 minutes, followed by 95° C. for 10 minutes. All amplification was normalized to β-actin gene amplification in the linear portion of the amplification curves. Data were then expressed as a fold increase over a reference tissue or cell type.

muc5AC protein = experiment: muc5AC ELISA of supernatants of H292 cells exposed to cigarette smoke-bubbled media; type: cell-based, human; conditions: transfected H292 cells, CS-10 for 72 hours, triplicate; listed as RAI-3 siRNA 1864+1865
Procedure: At 24 hours post siRNA transfection, the media was changed to serum-free RPMI media containing 20 mM Glutamine and 1% Penicillin-Streptomycin and incubated at 37° C., 5% CO2, for 24 hours. At 48 hours post transfection, the serum-free RPMI media was removed from the cells and replaced with 1.0 ml of cigarette smoke-bubbled medium (i.e., CS-10, the equivalent of 10 cigarettes per 500 ml of cell culture medium) for 72 hours (96 hours post-transfection) or control. At 72 hours (96 hours post-transfection), 100 ul×3 of supernatent from each well in the 24-well plate was transferred to 96-well plate for ELISA analysis.
A muc5AC coating antibody, Gastric Mucin Ab-1 45M1 (NeoMarkers, Fremont, Calif.) was diluted 1:1000 to 1 ug/ml final in 50 mM NaHCO3 pH 9 and coated onto a standard 96-well ELISA plate overnight at room temperature with rotating. The next day the plate was washed three times with 1×PBS/0.05% Tween 20 (PBS-T) and blocked with 200 ul of blocking buffer, 1×PBS/1% BSA final (30% solution, Sigma-Aldrich Co. Saint Louis, Mo.). […] The next day the wells were washed three times with PBS-T. Muc5AC protein in the supernatent was detected with Peroxidase-Labeled Lectin from Glycine Max (Sigma-Aldrich, St. Louis, Mo.) diluted to 1ug/ml in 1×PBS/1% BSA final. […] Color reactions were stopped with 100 μl/well 1 N. H2SO4 and the absorbency at 450 nm-650 nm was measured.

Row | Molecule | RAI-3 mRNA levels (RAI-3 mRNA; H292 cells (high basal level of RAI-3 expression)) | RAI-3 mRNA levels (RAI-3 mRNA; HEK 293, BEAS-2B and H292 cells, ATRA 1 μM) | average ELISA signal, muc5AC protein in the supernatant (muc5AC protein)
1 | CC1=C(/C=C/C(C)=C/C=C/C(C)=C/C(=O)O)C(C)(C)CCC1 [ATRA, all-trans retinoic acid] | modest, but measurable increase | increase; also recorded: induced | 
2 | RAI-3 siRNA reagent 1864+1865: annealed double stranded siRNA r(GGUGCAGGACUCCAACAGG)d(TT) and r(CCUGUUGGAGUCCUGCACC)d(TT), SEQ ID NO:94 and 95 (chain 1 GGUGCAGGACUCCAACAGGTT; chain 2 CCUGUUGGAGUCCUGCACCTT; sugars from the 5' end r19 d2, backbone not given here) |  |  | significantly reduced
